pIC50: −log10 of the molar value. Read-outs that look alike come from different tables or passages of the source.
Molecular target: T1, human cardiac ion channel proteins hKir3.1/Kir3.4 (Homo sapiens, UniProt P48544+P48549)
T1 construct: expressed in transfected cells
T1 sequence (P48549 1-501): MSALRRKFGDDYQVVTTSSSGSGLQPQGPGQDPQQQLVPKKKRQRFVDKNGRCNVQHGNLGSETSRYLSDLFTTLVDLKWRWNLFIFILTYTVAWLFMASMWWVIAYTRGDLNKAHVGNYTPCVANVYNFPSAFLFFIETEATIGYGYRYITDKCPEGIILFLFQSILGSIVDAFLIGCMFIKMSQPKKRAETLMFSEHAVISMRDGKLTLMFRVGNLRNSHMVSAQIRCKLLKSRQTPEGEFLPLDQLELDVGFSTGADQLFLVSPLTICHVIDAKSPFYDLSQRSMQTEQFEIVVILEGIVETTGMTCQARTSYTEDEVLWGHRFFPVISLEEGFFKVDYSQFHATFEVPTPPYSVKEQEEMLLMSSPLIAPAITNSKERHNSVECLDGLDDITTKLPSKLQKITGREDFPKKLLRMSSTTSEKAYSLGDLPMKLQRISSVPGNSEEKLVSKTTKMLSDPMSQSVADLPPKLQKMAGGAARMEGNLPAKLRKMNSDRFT
T1 sequence (P48544 1-419): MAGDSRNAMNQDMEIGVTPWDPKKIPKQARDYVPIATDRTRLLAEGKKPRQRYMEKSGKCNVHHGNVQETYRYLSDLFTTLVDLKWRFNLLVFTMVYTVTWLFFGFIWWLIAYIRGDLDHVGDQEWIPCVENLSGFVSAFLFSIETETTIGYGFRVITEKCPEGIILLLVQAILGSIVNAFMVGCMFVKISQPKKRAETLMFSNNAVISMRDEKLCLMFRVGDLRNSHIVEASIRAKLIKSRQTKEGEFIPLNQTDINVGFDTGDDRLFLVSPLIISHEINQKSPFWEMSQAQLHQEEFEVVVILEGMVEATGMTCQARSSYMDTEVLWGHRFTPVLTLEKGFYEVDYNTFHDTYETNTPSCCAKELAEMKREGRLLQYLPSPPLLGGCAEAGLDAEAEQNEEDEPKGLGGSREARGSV
Test: Atomic Absorption Screening (AAS) Rb efflux assay of hKir3.1/Kir3.4 block, carbachol/high K+ stimulated, 10-pt or 7-pt CR
Assay type: cell-based
Details: AAS Rb efflux, CHO-K1 cells expressing hKir3.1/Kir3.4
In short: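 Mean IC50s derive from >4 replicates over 0.003–67 μmol/L (10-point) or >3 replicates over 0.037–27 μmol/L (7-point), both threefold steps. Rb-loaded (3 h, 37° C) CHO-K1 cells stably expressing hKir3.1/Kir3.4 saw compound for 5 min at RT before 10-min channel opening by carbachol 10 μM/KCl 20 mM final. Released Rb was quantified by atomic absorption.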

[1] = 7-pt CR (0.037 to 27 μmol/L), mean of >3 replicates, read-out: IKACh IC50 7-pt CR, AAS
[2] = 10-pt CR (0.003 to 67 μmol/L), mean of >4 replicates, read-out: IKACh IC50 10-pt CR, AAS

Compound	pIC50 [1]	pIC50 [2]
CC(C)[C@@H](CN1CCCC1)N(C)C(=O)c1cc(F)cc(C(F)(F)F)c1 [Example 16.8, (S)-3-Fluoro-N-methyl-N-(3-methyl-1-(pyrrolidin-1-yl)butan-2-yl)-5-(trifluoromethyl)benzamide]	5.10	
CC(C)[C@@H](CN1CCCC1)N(C)C(=O)c1cc(F)cc(F)c1F [Example 16.9, (S)-2,3,5-Trifluoro-N-methyl-N-(3-methyl-1-(pyrrolidin-1-yl)butan-2-yl)benzamide]	5.41	4.85
CC(C)[C@@H](CN1CCCC1)N(C)C(=O)c1cccc(C(F)(F)F)c1 [Example 16.10, (S)—N-Methyl-N-(3-methyl-1-(pyrrolidin-1-yl)butan-2-yl)-3-(trifluoromethyl)benzamide]	5.59	
COc1cc(C(=O)N(C)[C@H](CN2CCCC2)C(C)C)ccc1F [Example 16.11, (S)-4-Fluoro-3-methoxy-N-methyl-N-(3-methyl-1-(pyrrolidin-1-yl)butan-2-yl)benzamide]	4.96	
CC(C)[C@@H](CN1CCCC1)N(C)C(=O)c1cc(F)cc(F)c1 [Example 16.12, (S)-3,5-Difluoro-N-methyl-N-(3-methyl-1-(pyrrolidin-1-yl)butan-2-yl)benzamide]	4.64	4.82
Cc1c(F)cccc1C(=O)N(C)[C@H](CN1CCCC1)C(C)C [Example 16.13, (S)-3-Fluoro-N,2-dimethyl-N-(3-methyl-1-(pyrrolidin-1-yl)butan-2-yl)benzamide]	5.28	4.85
Cc1ccc(C(=O)N(C)[C@H](CN2CCCC2)C(C)C)cc1 [Example 16.14, (S)—N,4-Dimethyl-N-(3-methyl-1-(pyrrolidin-1-yl)butan-2-yl)benzamide]	5.17	
CC(C)[C@@H](CN1CCCC1)N(C)C(=O)c1ccc(OC(F)(F)F)cc1 [Example 16.15, (S)—N-Methyl-N-(3-methyl-1-(pyrrolidin-1-yl)butan-2-yl)-4-(tri-fluoromethoxy)benzamide]	5.60	
CC(C)[C@@H](CN1CCCC1)N(C)C(=O)c1cccc(OC(F)(F)F)c1 [Example 16.16, (S)—N-Methyl-N-(3-methyl-1-(pyrrolidin-1-yl)butan-2-yl)-3-(tri-fluoromethoxy)benzamide]	5.59	
CC(C)[C@@H](CN1CCCC1)N(C)C(=O)c1cccc(Cl)c1F [Example 16.17, (S)-3-Chloro-2-fluoro-N-methyl-N-(3-methyl-1-(pyrrolidin-1-yl)butan-2-yl)benzamide]	5.92	
CC(C)[C@@H](CN1CCCC1)N(C)C(=O)c1ccccc1F [Example 16.18, (S)-2-Fluoro-N-methyl-N-(3-methyl-1-(pyrrolidin-1-yl)butan-2-yl)benzamide]	4.96	
CC(C)[C@@H](CN1CCCC1)N(C)C(=O)c1c(F)cccc1C(F)(F)F [Example 16.19, (S)-2-Fluoro-N-methyl-N-(3-methyl-1-(pyrrolidin-1-yl)butan-2-yl)-6-(trifluoromethyl)benzamide]	4.85	
CC(C)[C@@H](CN1CCCC1)N(C)C(=O)c1ccccc1C(F)(F)F [Example 16.20, (S)—N-Methyl-N-(3-methyl-1-(pyrrolidin-1-yl)butan-2-yl)-2-(trifluoromethyl)benzamide]	4.85	
CC(C)[C@@H](CN1CCCC1)N(C)C(=O)c1cc(F)c(F)c(F)c1 [Example 16.21, (S)-3,4,5-Trifluoro-N-methyl-N-(3-methyl-1-(pyrrolidin-1-yl)butan-2-yl)benzamide]	4.92	
CC(C)[C@@H](CN1CCCC1)N(C)C(=O)c1cc(F)ccc1F [Example 16.22, (S)-2,5-Difluoro-N-methyl-N-(3-methyl-1-(pyrrolidin-1-yl)butan-2-yl)benzamide]	4.74	
CC(C)[C@@H](CN1CCCC1)N(C)C(=O)c1ccc(F)cc1C(F)(F)F [Example 16.23, (S)-4-Fluoro-N-methyl-N-(3-methyl-1-(pyrrolidin-1-yl)butan-2-yl)-2-(trifluoromethyl)benzamide]	5.17	
CC(C)[C@@H](CN1CCCC1)N(C)C(=O)c1c(F)cccc1F [Example 16.24, 2,6-Difluoro-N-methyl-N-[(1S)-2-methyl-1-(pyrrolidin-1-ylmethyl)propyl]benzamide]	< 4.57	5.01

Compound	pIC50 [1]	pIC50 [2]
Cc1cc(C(=O)N(C)[C@H](CN2CCCCC2)C(C)C)ccc1Cl [Example 16.25, 4-Chloro-N,3-dimethyl-N-[(1S)-2-methyl-1-(piperidin-1-ylmethyl)propyl]benzamide]	5.55	
CC(C)[C@@H](CN1CCCCC1)N(C)C(=O)c1ccc(F)cc1Cl [Example 16.26, 2-Chloro-4-fluoro-N-methyl-N-[(1S)-2-methyl-1-(piperidin-1-yl-methyl)propyl]benzamide]	5.32	
CC(C)[C@@H](CN1CCCCC1)N(C)C(=O)c1ccc(Br)cc1 [Example 16.27, 4-Bromo-N-methyl-N-[(1S)-2-methyl-1-(piperidin-1-ylmethyl)propyl]benzamide]	5.40	
CC(C)[C@@H](CN1CCCCC1)N(C)C(=O)c1ccc(Cl)c(Cl)c1 [Example 16.28, 3,4-Dichloro-N-methyl-N-[(1S)-2-methyl-1-(piperidin-1-ylmethyl)propyl]benzamide]	6.08	
Cc1cccc(C(=O)N(C)[C@H](CN2CCCCC2)C(C)C)c1 [Example 16.29, N,3-Dimethyl-N-[(1S)-2-methyl-1-(piperidin-1-ylmethyl)propyl]benzamide]	5.06	5.03
CC(C)[C@@H](CN1CCCCC1)N(C)C(=O)c1ccc(Cl)cc1Cl [Example 16.30, 2,4-Dichloro-N-methyl-N-[(1S)-2-methyl-1-(piperidin-1-ylmethyl)propyl]benzamide]	5.77	
CC(C)[C@@H](CN1CCCCC1)N(C)C(=O)c1ccc(Cl)cc1F [Example 16.31, 4-Chloro-2-fluoro-N-methyl-N-[(1S)-2-methyl-1-(piperidin-1-ylmethyl)propyl]-benzamide]	5.62	
CC(C)[C@@H](CN1CCCCC1)N(C)C(=O)c1cccc(C(F)(F)F)c1 [Example 16.32, N-Methyl-N-[(1S)-2-methyl-1-(piperidin-1-ylmethyl)propyl]-3-(trifluoromethyl)-benzamide]	5.40	
CC(C)[C@@H](CN1CCCCC1)N(C)C(=O)c1ccc(F)c(Cl)c1 [Example 16.33, 3-Chloro-4-fluoro-N-methyl-N-[(1S)-2-methyl-1-(piperidin-1-ylmethyl)propyl]-benzamide]	5.17	
CC(C)[C@@H](CN1CCCCC1)N(C)C(=O)c1ccc(Cl)cc1 [Example 16.34, 4-Chloro-N-methyl-N-[(1S)-2-methyl-1-(piperidin-1-ylmethyl)propyl]benzamide]	5.37	
CC(C)[C@@H](CN1CCCCC1)N(C)C(=O)c1cccc(Br)c1 [Example 16.35, (S)-3-Bromo-N-methyl-N-(3-methyl-1-(piperidin-1-yl)butan-2-yl)benzamide]	4.92	
CC(C)[C@@H](CN1CCCCC1)N(C)C(=O)c1ccc(Br)c(F)c1 [Example 16.36, (S)-4-Bromo-3-fluoro-N-methyl-N-(3-methyl-1-(piperidin-1-yl)butan-2-yl)benzamide]	4.96	
CC(C)[C@@H](CN1CCCCC1)N(C)C(=O)c1cccc(Cl)c1 [Example 16.37, (S)-3-Chloro-N-methyl-N-(3-methyl-1-(piperidin-1-yl)butan-2-yl)benzamide]	4.85	4.82
Cc1c(F)cccc1C(=O)N(C)[C@H](CN1CCCCC1)C(C)C [Example 16.38, (S)-3-Fluoro-N,2-dimethyl-N-(3-methyl-1-(piperidin-1-yl)butan-2-yl)benzamide]	4.77	
CC(C)[C@@H](CN1CC[C@H](O)C1)N(C)C(=O)c1cccc(Cl)c1F [Example 16.39, 3-Chloro-2-fluoro-N-[(1S)-1-{[(3S)-3-hydroxypyrrolidin-1-yl]methyl}-2-methylpropyl]-N-methylbenzamide]	5.41	
Cc1cc(C(=O)N(C)[C@H](CN2CC[C@H](O)C2)C(C)C)ccc1F [Example 16.40, 4-Fluoro-N-[(1S)-1-{[(3S)-3-hydroxypyrrolidin-1-yl]methyl}-2-methylpropyl]-N,3-dimethylbenzamide]	5.49	
